Experimental data as given in ChEMBL document CHEMBL3596107, “Design, synthesis and evaluation of a series of acyclic fleximer nucleoside analogues with anti-coronavirus activity” (Bioorg Med Chem Lett, 2015).

How the values were obtained:
[1] = test system: SARS-CoV; assay: Antiviral activity against SARS-CoV assessed as inhibition of viral replication; type: functional, Severe acute respiratory syndrome-related coronavirus
[2] = Cytotoxicity against mock-infected African green monkey Vero E6 cells assessed as inhibition of cell survival after 3 days by CellTiter 96 AQueous Non-Radioactive Cell Proliferation Assay; type: cell-based; conditions: chlorocebus sabaeus, vero c1008, 72 h
[3] = Antiviral activity against SARS-CoV Frankfurt 1 infected in African green monkey Vero E6 cells assessed as inhibition of virus-induced cytopathic effect after 3 days by CellTiter 96 AQueous Non-Radioactive Cell Proliferation Assay; type: functional, cell-based, SARS coronavirus Frankfurt 1
[4] = Antiviral activity against Human coronavirus NL63 infected in African green monkey Vero118 cells assessed as inhibition of virus-induced cytopathic effect after 5 days by microscopic analysis; type: functional; conditions: Human coronavirus NL63, 120 h
[5] = test system: Middle East respiratory syndrome-related coronavirus; assay: Antiviral activity against MERS-CoV EMC/2012 infected in human HuH7 cells assessed as inhibition of virus-induced cytopathic effect after 2 days by CellTiter 96 AQueous Non-Radioactive Cell Proliferation Assay; type: functional, cell-based; conditions: EMC/2012, Huh-7, 48 h
[6] = Cytotoxicity against mock-infected human HuH7 cells assessed as inhibition of cell survival after 2 days by CellTiter 96 AQueous Non-Radioactive Cell Proliferation Assay; type: cell-based; conditions: huh-7, 48 h
[7] = test system: Vero; assay: Cytotoxicity against mock-infected African green monkey Vero cells assessed as inhibition of cell survival after 3 days by CellTiter 96 AQueous Non-Radioactive Cell Proliferation Assay; type: cell-based; conditions: chlorocebus sabaeus, 72 h
[8] = test system: Middle East respiratory syndrome-related coronavirus; assay: Antiviral activity against MERS-CoV EMC/2012 infected in African green monkey Vero cells assessed as inhibition of virus-induced cytopathic effect after 3 days by CellTiter 96 AQueous Non-Radioactive Cell Proliferation Assay; type: functional, cell-based; conditions: EMC/2012, Vero, 72 h
[9] = Cytotoxicity against mock-infected African green monkey Vero118 cells assessed as inhibition of cell survival after 5 days by microscopic analysis; type: cell-based; conditions: chlorocebus sabaeus; for CC50: 120 h

Structure (SMILES) | INH [1] [µg/mL] | CC50 [2] [µM] | EC50 ([3]; vero e6) | EC50 [4] [µM] | EC50 [5] [µM] | CC50 [6] [µM] | CC50 [7] [µM] | EC50 [8] [µM] | CC50 [9] [µM] | EC50 ([3]; Severe acute respiratory syndrome-related coronavirus, Vero C1008, 72 h, read-out: EC50) [mM] | CC50 at 120 h ([9]; mock-infected Vero118 cells) [µM]
NC(=O)c1ncn([C@@H]2O[C@H](CO)[C@@H](O)[C@H]2O)n1 [RIBAVIRIN] | 500 | – | – | – | – | – | – | – | – | – | –
COc1nc(N)ncc1-c1cn(COCCO)cn1 | – | 138 | Not Active | 8.8 | 27 | 149 | 71 | 23 | 120 | – | –
OCCOCn1cnc(-c2cnc(O)nc2O)c1 | – | – | – | 92 | – | – | – | – | > 200 | – | –
Nc1ncc(-c2cn(COCCO)cn2)c(O)n1 | – | – | – | > 200 | – | – | – | – | > 200 | – | –
Nc1nc2c(ncn2COCCO)c(=O)[nH]1 [ACYCLOVIR] | – | > 1000 | – | > 100 | > 1000 | > 1000 | > 1000 | > 1000 | – | > 1 | > 100
